Columns and labels:
[1] = Hygroscopicity test at room temperature/95% RH in an open system; type: physicochemical
[2] = Stress study at 40° C./75% RH in closed system (appearance, HPLC)

N[C@@H]1CONC1=O.N[C@@H]1CONC1=O.O=C(O)C(O)C(O)C(=O)O [D-cycloserine D-tartrate]
hygroscopicity compared with D-cycloserine and the carboxylic acids alone [1]: much less hygroscopic
water absorbed at the 30th day ([1]; FIG. 42): 1.3%
hygroscopicity (in words) ([1]; 30 days, FIG. 42): not hygroscopic

N[C@@H]1CONC1=O.O=C(O)C(O)C(O)C(=O)O [D-cycloserine L-tartrate]
hygroscopicity compared with D-cycloserine and the carboxylic acids alone [1]: much less hygroscopic
water absorbed at the 60th day ([1]; FIG. 40): 18.9%
hygroscopicity (in words) ([1]; 30 days, FIG. 41): not hygroscopic
hygroscopicity (in words) ([1]; 60 days, FIG. 40): not hygroscopic

N[C@@H]1CONC1=O [D-cycloserine from Strides Shasun Ltd., D-cycloserine]
water absorbed at the 30th day ([1]; FIG. 41): 41.9%
water absorbed at the 30th day ([1]; FIG. 42): 42.7%
water absorbed at the 60th day ([1]; FIG. 40): 59.2%

N[C@@H]1CONC1=O.O=C(O)/C=C\C(=O)O [D-cycloserine maleate (1:1) salt form, D-cycloserine maleate]
hygroscopicity compared with D-cycloserine and the carboxylic acids alone [1]: much less hygroscopic
water absorbed at the 30th day ([1]; FIG. 41): 1.3%

N[C@@H]1CONC1=O [D-cycloserine]
water absorbed at the 30th day ([1]; FIG. 41): 41.3%
water absorbed at the 30th day ([1]; FIG. 42): 43.3%
water absorbed at the 60th day ([1]; FIG. 40): 62.5%
appearance after one month stress study ([2]; 40° C./75% RH, one month): disintegrated and turned into dark yellow

O=C(O)[C@@H](O)[C@H](O)C(=O)O [D-tartaric acid]
water absorbed at the 30th day ([1]; FIG. 42): 177.0%
stability by HPLC after stress study ([2]; 40/75% RH, 30 days, FIG. 39): stable

O=C(O)[C@H](O)[C@@H](O)C(=O)O [L-tartaric acid]
water absorbed at the 60th day ([1]; FIG. 40): 244.6%

O=C(O)/C=C\C(=O)O [Maleic acid, maleic acid]
water absorbed at the 30th day ([1]; FIG. 41): 100.4%

— patent US12178804B2, “Salts of cycloserine compounds and applications thereof” (SyneuRx International (Taiwan) Corp., priority 2018, dated 2024)
